The values below are quoted from earlier work in US7939721B2, “Cropping systems for managing weeds” (Monsanto Technology LLC, priority 2006, dated 2011).

Like-named read-outs stand apart in the source and are kept apart here.

The series concerns soybean plants transformed with dicamba monooxygenase (DMO)-encoding polynucleotide constructs. The settings on record: cited from earlier work.

With `COc1c(Cl)ccc(Cl)c1C(=O)O` [dicamba, 3,6-dichloro-o-anisic acid], the injury entry is recorded as “less than 20%” (18× application rate of 10,080 g/ha (9 lb/acre)); “less than 2%” (approximately 2× rate of application of 1122 g/ha); “less than 10%” (early pre-emergence application, 9× the labeled application rate (5,040 g/ha, 4.5 lb/acre)).
